A short description of data set [1]: Stability of the crystal form. The class given is physicochemical. Conditions: prolonged periods of time.
Data set [2] is described as follows: Solubility (saturated solution in water at 37° C.). The class given is physicochemical. Conditions: for solubility: water, 37° C. As for the experimental part:
For example, the compound forms a saturated solution in water at 37° C. according to the following table: […]

Data set [3] is described as follows: Absorption following oral administration. The class given is in vivo.
For the next data set, the system named is Peptostrept. intermedius. The data set can be described thus: Activity against anaerobic cocci.
Data set [4] in a line: Titration (66% N,N-dimethylformamide/water). Conditions: 66% dmf/water. The class given is physicochemical. The text has this:
Titration (66% N,N-dimethylformamide/water) pKa 5.5, 7.5, 11.2.

The nature of a further data set: Pharmacokinetics. The class given is in vivo. Conditions: in words; tetrahydrate, oral.
Data set [5] has as its system Peptostreptococcus anaerobius. The data set can be described thus: Activity against anaerobic cocci.
The conditions of data set [6]: background statement; cited from earlier work.
For data set [7] the following is noted: background statement; cited from earlier work. This is another data set of the same source.
In a further data set the test system is gram positive. Conditions: background statement; cited from earlier work.

Like-named read-outs stand apart in the source and are kept apart here.

Consider `CC1=C(C(=O)O)N2C(=O)C(NC(=O)[C@H](N)c3ccc4ccccc4c3)C2SC1` (stereo partly drawn) [7-(D-2-naphthylglycylamido)-3-methyl-3-cephem-4-carboxylic acid tetrahydrate], for which the stability entry in data set [1] is “very stable for prolonged periods of time”. Besides, the solubility in water result in data set [2] (in words) is recorded as “only minimally soluble in water”. The solubility turned out to be 8600 µg/mL in [2] (pH 1.2); 1700 µg/mL in data set [2] (pH 2.0); 200 µg/mL in data set [2] (pH 3.0); 200 µg/mL in data set [2] (pH 4.0); 200 µg/mL in data set [2] (pH 5.0); 300 µg/mL in [2] (pH 6.0). Besides, the solubility was 800 µg/mL in data set [2] (pH 7.0), 1200 µg/mL in data set [2] (pH 7.5), 4100 µg/mL in data set [2] (pH 8.0) and 7500 µg/mL in data set [2] (pH 8.5). In data set [3], the “absorption following oral administration” value is “very well absorbed following oral administration”. Besides, the “effective against anaerobic cocci” value (in the data set on Peptostrept. intermedius; in [5]) was “effective” throughout. Further, the pKa in [4] (first value) was 5.5; in [4] (second value), 7.5; in data set [4] (third value), 11.2. The pharmacokinetics entry in the data set “Pharmacokinetics” is given as “favorable pharmacokinetics”.

In the case of `CC1=C(C(=O)O)N2C(=O)C(NC(=O)[C@H](N)c3ccc4ccccc4c3)C2SC1` (stereo partly drawn) [7-(D-2-Naphthylglycylamido)-3-methyl-3-cephem-4-carboxylic acid], the orally active antibiotic entry in data set [6] is given as “potent orally active antibiotic”. Further, the pharmacokinetics result in data set [7] is “favorable pharmacokinetics”. In the data set with gram positive, the gram positive activity result is “excellent gram positive activity”.

Usually solubility stands for the dissolved amount per volume that the medium holds. A lower solubility goes with little dissolved substance. As usually defined, the pKa is the pH at which an ionisable group is half protonated. Read a high pKa as a weaker acid or stronger base.
